Laboratory results taken from ChEMBL document CHEMBL4270604, “Hedgehog pathway inhibitors of the acylthiourea and acylguanidine class show antitumor activity on colon cancer in vitro and in vivo” (Eur J Med Chem, 2018).

Experiments:
[1] = in vitro; conditions: human, Caco-2
Description: Apparent permeability of the compound from apical to basolateral side in human Caco2 cells assessed as drug recovery after 120 mins by LC-MS/MS analysis

[2] = in vitro; conditions: human, Caco-2; remark: listed apart in the source
Description: Apparent permeability of the compound from basolateral to apical side in human Caco2 cells assessed as drug recovery after 120 mins by LC-MS/MS analysis

[3] = Half life in cryopreserved mouse liver microsomes at 1 uM after 120 mins by HPLC-MS/MS analysis; assay type: ADME, microsome
[4] = Intrinsic clearance in mouse liver […] per million cells at 1 uM after 120 mins by HPLC-MS/MS analysis; assay type: ADME; conditions: 2 h
[5] = Intrinsic clearance in mouse liver microsomes at 1 uM after 120 mins by HPLC-MS/MS analysis; assay type: ADME, microsome; conditions: read-out: CLH
[6] = molecular target: T1, CYP2C19 (Homo sapiens, UniProt P33261); experiment: Inhibition of recombinant human CYP2C19 expressed in insect cell microsomes at 10 uM using Luciferin-H EGE as substrate preincubated for 20 mins followed by NADPH addition measured after 30 mins by luminometric method; assay type: ADME; conditions: probe Luciferin-H EGE
[7] = molecular target: T2, CYP2C9 (Homo sapiens, UniProt P11712); experiment: Inhibition of recombinant human CYP2C9 expressed in insect cell microsomes at 1 uM using Luciferin-H as substrate preincubated for 30 mins followed by NADPH addition measured after 30 mins by luminometric method; assay type: ADME; conditions: probe Luciferin-H
[8] = molecular target: T3, CYP3A4 (Homo sapiens, UniProt P08684); experiment: Inhibition of recombinant human CYP3A4 expressed in insect cell microsomes at 1 uM using Luciferin-IPA as substrate preincubated for 10 mins followed by NADPH addition measured after 10 mins by luminometric method; assay type: ADME; conditions: probe Luciferin-IPA
[9] = molecular target: T1, CYP2C19; experiment: Inhibition of recombinant human CYP2C19 expressed in insect cell microsomes at 5 uM using Luciferin-H EGE as substrate preincubated for 20 mins followed by NADPH addition measured after 30 mins by luminometric method; assay type: ADME; conditions: probe Luciferin-H EGE
[10] = Stability of the compound in mouse deproteinized plasma at 37 degC after 120 mins by HPLC-MS/MS analysis; assay type: ADME, cell-free; conditions: 2 h
[11] = molecular target: T4, Coelenterazine h 2-monooxygenase (Renilla reniformis, UniProt P27652); experiment: Effect on Renilla reniformis luciferase; assay type: ADME
T4 sequence (P27652 whole entry): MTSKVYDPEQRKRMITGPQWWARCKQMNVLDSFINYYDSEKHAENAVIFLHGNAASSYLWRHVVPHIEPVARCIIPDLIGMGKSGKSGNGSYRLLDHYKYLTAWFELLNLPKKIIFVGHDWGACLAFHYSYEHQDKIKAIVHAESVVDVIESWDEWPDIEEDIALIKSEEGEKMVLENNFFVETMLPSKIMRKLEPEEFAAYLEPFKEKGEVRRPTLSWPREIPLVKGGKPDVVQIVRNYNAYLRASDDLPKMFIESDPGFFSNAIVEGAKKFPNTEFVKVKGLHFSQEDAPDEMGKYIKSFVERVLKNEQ

[12] = system: HT-1080; experiment: Antiproliferative activity against human HT1080 cells after 72 hrs by sulforhodamine-B assay; assay type: functional, cell-based; conditions: for IC50: HT-1080, 72 h
[13] = molecular target: T2, CYP2C9; experiment: Inhibition of recombinant human CYP2C9 expressed in insect cell microsomes at 5 uM using Luciferin-H as substrate preincubated for 30 mins followed by NADPH addition measured after 30 mins by luminometric method; assay type: ADME; conditions: probe Luciferin-H
[14] = Inhibition of hedgehog signaling pathway-mediated differentiation of mouse C3H10T1/2 cells assessed as decrease in SAG-induced ALP activity after 6 days by chemiluminescence-based assay; conditions: C3H 10T1/2, 144 h
[15] = species on record: Mus musculus; experiment: Inhibition of hedgehog signaling pathway in mouse Light2 cells stimulated with 100 nM SAG after 30 hrs by Gli-firefly luciferase reporter gene assay
[16] = as above
[17] = molecular target: T5, CYP2D6 (Homo sapiens, UniProt P10635); experiment: Inhibition of recombinant human CYP2D6 expressed in insect cell microsomes at 10 uM using Luciferin-ME EGE as substrate preincubated for 30 mins followed by NADPH addition measured after 45 mins by luminometric method; assay type: ADME; conditions: probe Luciferin-ME EGE
[18] = molecular target: T6, CYP1A2 (Homo sapiens, UniProt P05177); experiment: Inhibition of recombinant human CYP1A2 expressed in insect cell microsomes at 1 uM using Luciferin-ME as substrate preincubated for 10 mins followed by NADPH addition measured after 30 mins by luminometric method; assay type: ADME; conditions: probe Luciferin-ME
T6 sequence (P05177 whole entry): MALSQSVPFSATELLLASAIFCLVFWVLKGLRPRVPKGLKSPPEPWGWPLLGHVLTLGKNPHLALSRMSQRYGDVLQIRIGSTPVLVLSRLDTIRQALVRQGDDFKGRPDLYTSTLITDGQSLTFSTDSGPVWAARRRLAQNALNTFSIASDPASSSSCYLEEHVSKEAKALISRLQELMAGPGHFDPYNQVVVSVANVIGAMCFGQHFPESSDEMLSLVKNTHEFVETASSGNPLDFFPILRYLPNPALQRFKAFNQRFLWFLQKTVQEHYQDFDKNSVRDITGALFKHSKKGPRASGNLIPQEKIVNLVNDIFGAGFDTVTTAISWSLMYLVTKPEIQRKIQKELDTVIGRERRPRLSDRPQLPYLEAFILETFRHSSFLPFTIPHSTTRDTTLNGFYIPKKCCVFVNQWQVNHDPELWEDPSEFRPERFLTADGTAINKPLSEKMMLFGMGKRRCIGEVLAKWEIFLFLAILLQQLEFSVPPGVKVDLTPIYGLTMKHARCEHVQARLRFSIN

[19] = molecular target: T1, CYP2C19; experiment: Inhibition of recombinant human CYP2C19 expressed in insect cell microsomes at 1 uM using Luciferin-H EGE as substrate preincubated for 20 mins followed by NADPH addition measured after 30 mins by luminometric method; assay type: ADME; conditions: probe Luciferin-H EGE
[20] = molecular target: T2, CYP2C9; experiment: Inhibition of recombinant human CYP2C9 expressed in insect cell microsomes at 10 uM using Luciferin-H as substrate preincubated for 30 mins followed by NADPH addition measured after 30 mins by luminometric method; assay type: ADME; conditions: probe Luciferin-H
[21] = Drug recovery in mouse plasma at 37 degC after 120 mins by HPLC-MS/MS analysis; assay type: ADME, cell-free; conditions: read-out: Drug recovery
[22] = molecular target: T6, CYP1A2; experiment: Inhibition of recombinant human CYP1A2 expressed in insect cell microsomes at 10 uM using Luciferin-ME as substrate preincubated for 10 mins followed by NADPH addition measured after 30 mins by luminometric method; assay type: ADME; conditions: probe Luciferin-ME
[23] = species on record: Homo sapiens; experiment: Substrate activity at recombinant human P-gp in membrane fraction assessed as increase in ATPase activity at 10 uM by luminescent P-gp-Glo assay relative to control
[24] = molecular target: T3, CYP3A4; experiment: Inhibition of recombinant human CYP3A4 expressed in insect cell microsomes at 10 uM using Luciferin-IPA as substrate preincubated for 10 mins followed by NADPH addition measured after 10 mins by luminometric method; assay type: ADME; conditions: probe Luciferin-IPA
[25] = molecular target: T6, CYP1A2; experiment: Inhibition of recombinant human CYP1A2 expressed in insect cell microsomes at 5 uM using Luciferin-ME as substrate preincubated for 10 mins followed by NADPH addition measured after 30 mins by luminometric method; assay type: ADME; conditions: probe Luciferin-ME
[26] = molecular target: T5, CYP2D6; experiment: Inhibition of recombinant human CYP2D6 expressed in insect cell microsomes at 1 uM using Luciferin-ME EGE as substrate preincubated for 30 mins followed by NADPH addition measured after 45 mins by luminometric method; assay type: ADME; conditions: probe Luciferin-ME EGE
[27] = molecular target: T5, CYP2D6; experiment: Inhibition of recombinant human CYP2D6 expressed in insect cell microsomes at 5 uM using Luciferin-ME EGE as substrate preincubated for 30 mins followed by NADPH addition measured after 45 mins by luminometric method; assay type: ADME; conditions: probe Luciferin-ME EGE
[28] = system: LS180; experiment: Antiproliferative activity against human LS180 cells after 72 hrs by sulforhodamine-B assay; assay type: functional, cell-based; conditions: for IC50: LS180, 72 h
[29] = molecular target: T3, CYP3A4; experiment: Inhibition of recombinant human CYP3A4 expressed in insect cell microsomes at 5 uM using Luciferin-IPA as substrate preincubated for 10 mins followed by NADPH addition measured after 10 mins by luminometric method; assay type: ADME; conditions: probe Luciferin-IPA
[30] = in vitro; conditions: human, Caco-2; remark: listed apart in the source
Description: Apparent permeability of the compound from apical to basolateral side in human Caco2 cells after 120 mins by LC-MS/MS analysis

T3 sequence (P08684 whole entry): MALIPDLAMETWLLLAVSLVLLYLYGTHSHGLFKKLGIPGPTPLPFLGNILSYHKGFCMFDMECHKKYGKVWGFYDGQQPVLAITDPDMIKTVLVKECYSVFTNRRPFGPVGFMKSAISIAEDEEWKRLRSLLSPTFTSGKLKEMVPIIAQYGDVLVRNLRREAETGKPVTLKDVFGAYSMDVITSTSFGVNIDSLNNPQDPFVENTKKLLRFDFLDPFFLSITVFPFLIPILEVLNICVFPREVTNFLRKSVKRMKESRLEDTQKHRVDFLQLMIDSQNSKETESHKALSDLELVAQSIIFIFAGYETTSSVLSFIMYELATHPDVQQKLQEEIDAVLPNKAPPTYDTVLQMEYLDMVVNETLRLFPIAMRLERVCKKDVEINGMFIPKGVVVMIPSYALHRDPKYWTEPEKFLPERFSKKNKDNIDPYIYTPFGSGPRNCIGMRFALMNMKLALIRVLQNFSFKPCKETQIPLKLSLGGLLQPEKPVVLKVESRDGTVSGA
T1 sequence (P33261 whole entry): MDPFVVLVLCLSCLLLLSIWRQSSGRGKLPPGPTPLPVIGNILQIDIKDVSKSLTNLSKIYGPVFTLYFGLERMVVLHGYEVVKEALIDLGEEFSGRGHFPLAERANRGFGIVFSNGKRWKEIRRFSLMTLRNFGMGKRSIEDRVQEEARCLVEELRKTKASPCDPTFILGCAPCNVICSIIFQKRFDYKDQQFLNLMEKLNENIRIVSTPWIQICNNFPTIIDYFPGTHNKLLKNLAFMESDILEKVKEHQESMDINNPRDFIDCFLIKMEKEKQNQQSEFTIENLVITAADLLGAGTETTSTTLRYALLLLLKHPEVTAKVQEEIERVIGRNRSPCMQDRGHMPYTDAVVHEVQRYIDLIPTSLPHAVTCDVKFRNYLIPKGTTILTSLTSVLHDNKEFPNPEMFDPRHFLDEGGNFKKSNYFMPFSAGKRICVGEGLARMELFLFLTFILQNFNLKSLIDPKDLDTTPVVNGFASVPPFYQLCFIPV
T2 sequence (P11712 whole entry): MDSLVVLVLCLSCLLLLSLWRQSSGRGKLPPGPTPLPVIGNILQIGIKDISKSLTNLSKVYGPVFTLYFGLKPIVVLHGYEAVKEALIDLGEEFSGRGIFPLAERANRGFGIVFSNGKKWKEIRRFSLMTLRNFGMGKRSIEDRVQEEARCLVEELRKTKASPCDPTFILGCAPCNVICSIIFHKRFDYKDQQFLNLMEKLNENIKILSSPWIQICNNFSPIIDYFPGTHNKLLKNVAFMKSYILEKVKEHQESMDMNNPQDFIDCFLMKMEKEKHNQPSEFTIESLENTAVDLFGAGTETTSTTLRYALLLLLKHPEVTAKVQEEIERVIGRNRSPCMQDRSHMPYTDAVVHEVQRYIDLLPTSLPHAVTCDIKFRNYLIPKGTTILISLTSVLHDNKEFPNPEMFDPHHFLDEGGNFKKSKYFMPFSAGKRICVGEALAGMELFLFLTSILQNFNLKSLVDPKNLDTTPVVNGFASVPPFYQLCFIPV
T5 sequence (P10635 whole entry): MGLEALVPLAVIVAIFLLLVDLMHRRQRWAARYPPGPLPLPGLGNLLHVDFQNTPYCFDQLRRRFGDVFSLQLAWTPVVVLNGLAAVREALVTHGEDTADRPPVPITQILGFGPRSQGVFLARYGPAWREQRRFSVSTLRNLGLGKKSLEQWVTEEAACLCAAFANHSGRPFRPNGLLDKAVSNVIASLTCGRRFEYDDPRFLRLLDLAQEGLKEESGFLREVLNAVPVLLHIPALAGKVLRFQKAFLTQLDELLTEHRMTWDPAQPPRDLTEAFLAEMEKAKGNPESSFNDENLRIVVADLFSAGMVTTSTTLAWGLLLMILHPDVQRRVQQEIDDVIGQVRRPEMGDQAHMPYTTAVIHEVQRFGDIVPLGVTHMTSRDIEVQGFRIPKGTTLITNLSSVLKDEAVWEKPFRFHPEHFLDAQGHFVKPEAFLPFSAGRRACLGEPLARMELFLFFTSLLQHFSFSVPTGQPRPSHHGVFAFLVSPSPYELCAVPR

Question: Which recovery at 2 h [1] does the source give for `CC(C)NCC(O)COc1ccc(CC(N)=O)cc1` (stereo not given) [ATENOLOL] here?
Answer: 94.7%

Question: And the recovery at 2 h [2]?
Answer: 102%

Question: Which half-life at 1 µM [3] does the source give for `CCOc1ccc2ccc(=O)oc2c1` [ETHOXYCOUMARIN] here?
Answer: 4.84 min

Question: And the CLH [4]?
Answer: 477 µL/min

Question: What about the CLint scaled at 1 µM [5] of the same compound?
Answer: 1260 mL/min/kg

Question: Which inhibition at 0.5 h, 10 µM [6] does the source give for `Cc1c(C)c2c(c(C)c1O)CCC(C)(COc1ccc(CC3SC(=O)NC3=O)cc1)O2` (stereo not given) [TROGLITAZONE] here?
Answer: 84%

Question: With `COc1cc(C(=O)NC(=S)Nc2ccc(C)c(NC(=O)c3ccc(-c4ccc(F)cc4)cc3)c2)cc(OC)c1OC` as the compound, how does the inhibition at 0.5 h, 1 µM [7] read?
Answer: 63%

Question: And the inhibition at 10 min, 1 µM [8]?
Answer: 4%

Question: And the inhibition at 0.5 h, 10 µM [6]?
Answer: 27%

Question: And the inhibition at 0.5 h, 5 µM [9]?
Answer: 33%

Question: And the Stability [10]?
Answer: Stable

Question: What about the Activity [11] of the same compound?
Answer: Not Active

Question: What about the Activity [12] of the same compound?
Answer: Dose-dependent effect

Question: And the IC50 [12]?
Answer: 27000 nM

Question: What about the inhibition at 0.5 h, 5 µM [13] of the same compound?
Answer: 69%

Question: And the IC50 [14]?
Answer: 670 nM

Question: And the inhibition [15]?
Answer: Dose-dependent effect

Question: And the IC50 [16]?
Answer: 100 nM

Question: What about the inhibition at 0.75 h, 10 µM [17] of the same compound?
Answer: 6%

Question: What about the inhibition at 0.5 h, 1 µM [18] of the same compound?
Answer: 2%

Question: What about the recovery at 2 h [1] of the same compound?
Answer: 65.4%

Question: And the inhibition at 0.5 h, 1 µM [19]?
Answer: 25%

Question: And the inhibition at 0.5 h, 10 µM [20]?
Answer: 71%

Question: What about the remaining at 2 h [21] of the same compound?
Answer: 4.9%

Question: What about the inhibition at 0.5 h, 10 µM [22] of the same compound?
Answer: 1%

Question: And the fold change (FC) [23]?
Answer: 3

Question: And the inhibition at 10 min, 10 µM [24]?
Answer: 15%

Question: What about the inhibition at 0.5 h, 5 µM [25] of the same compound?
Answer: 5%

Question: And the inhibition at 0.75 h, 1 µM [26]?
Answer: 18%

Question: And the recovery at 2 h [2]?
Answer: 42.9%

Question: What about the inhibition at 0.75 h, 5 µM [27] of the same compound?
Answer: 1%

Question: What about the Activity [28] of the same compound?
Answer: Dose-dependent effect

Question: What about the IC50 [28] of the same compound?
Answer: 7500 nM

Question: And the inhibition at 10 min, 5 µM [29]?
Answer: 7%

Question: With `CS(=O)(=O)c1ccc(C(=O)Nc2ccc(Cl)c(-c3ccccn3)c2)c(Cl)c1` [VISMODEGIB] as the compound, how does the Activity [11] read?
Answer: Not Active

Question: And the Activity [12]?
Answer: Dose-dependent effect

Question: What about the IC50 [12] of the same compound?
Answer: > 100000 nM

Question: What about the IC50 [14] of the same compound?
Answer: 50 nM

Question: What about the inhibition [15] of the same compound?
Answer: Dose-dependent effect

Question: And the IC50 [16]?
Answer: 50 nM

Question: What about the Activity [28] of the same compound?
Answer: Dose-dependent effect

Question: What about the IC50 [28] of the same compound?
Answer: 45000 nM

Question: What does the source list for `CC(C)NCC(O)COc1cccc2ccccc12` (stereo not given) [PROPRANOLOL]?
Answer: recovery at 2 h [1]: 70%; Papp A→B at 2 h [30]: 30.9 ×10⁻⁶ cm/s

Question: Which fold change (FC) [23] does the source give for `COc1ccc(CCN(C)CCCC(C#N)(c2ccc(OC)c(OC)c2)C(C)C)cc1OC` (stereo not given) here?
Answer: 8.5
